We go through 20 compounds from PubChem BioAssay (NCI).

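How tested: cells in 96-well plates exposed to compound for 48 hours at five concentrations. TGI denotes the concentration required for complete inhibition of growth.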 Where a SMILES comes first, the peptide text is derived from it.

Among the test systems are SF-539 CNS; KM12 colon; SF-295 CNS; SK-MEL-28 melanoma; OVCAR-8 ovarian; OVCAR-5 ovarian; MDA-MB-435; DU-145 prostate; RXF 393 renal; MOLT-4 leukemia.
Assay in all cases: NCI anticancer screen, dose series, 48 h

With `O=c1oc2ccc(Cl)cc2cc1-c1cn2ccccc2n1`, the TGI in the test with SF-539 CNS was > 100 µM; in the test on KM12 colon, > 100 µM; in the test on SF-295 CNS, 24.5 µM; in the test on SK-MEL-28 melanoma it was > 100 µM; with OVCAR-8 ovarian, > 100 µM; in the test on OVCAR-5 ovarian, > 100 µM. The TGI with MDA-MB-435 was > 100 µM; in the test on DU-145 prostate, > 100 µM; with RXF 393 renal, > 44.7 µM; with MOLT-4 leukemia, > 100 µM.

As to `CN(C)c1ccc(-c2ccc(N(C)C)c3n[se]nc23)c2n[se]nc12`, the TGI in the test with SF-539 CNS, in the test with KM12 colon, in the test on SF-295 CNS, with SK-MEL-28 melanoma, in the test with OVCAR-8 ovarian and with OVCAR-5 ovarian was > 100 µM throughout. In addition, the TGI with MDA-MB-435, in the test with DU-145 prostate, with RXF 393 renal and with MOLT-4 leukemia was > 100 µM each time.

`CC(C)CC(NC(=O)C(Cc1ccccc1)NC(=O)C(Cc1c[nH]c2ccccc12)NC(=O)CNC(=O)C(N)Cc1ccc(O)cc1)C(=O)O` (stereo not given) (H-YGWFL-OH; configuration not given here): the TGI with SF-539 CNS was 87 µM; in the test with KM12 colon, 57.4 µM; with SF-295 CNS it was 88.6 µM; in the test with SK-MEL-28 melanoma, > 100 µM; in the test on OVCAR-8 ovarian it was > 100 µM; in the test with OVCAR-5 ovarian it was > 100 µM. Further, the TGI in the test with MDA-MB-435, in the test on DU-145 prostate, in the test with RXF 393 renal and with MOLT-4 leukemia was > 100 µM throughout.

As for `O=C1NC(N2CCCCC2)=N/C1=C\c1ccccc1O`, the TGI in the test with SF-539 CNS, with KM12 colon, with SF-295 CNS, with SK-MEL-28 melanoma, in the test with OVCAR-8 ovarian and with OVCAR-5 ovarian was > 100 µM throughout. Further, the TGI in the test with MDA-MB-435, in the test with DU-145 prostate, with RXF 393 renal and in the test with MOLT-4 leukemia was > 100 µM in each case.

With `CC1=CC(C)C(C)N(CCNS(=O)(=O)c2ccc(C)cc2)c2ccccc21` (stereo not given), the TGI amounted to 18.1 µM with SF-539 CNS; 37.3 µM in the test on KM12 colon; 19.5 µM in the test with SF-295 CNS; 17.9 µM with SK-MEL-28 melanoma; 24 µM with OVCAR-8 ovarian; 31.1 µM in the test on OVCAR-5 ovarian. The TGI in the test with MDA-MB-435 worked out at 18.9 µM; in the test on DU-145 prostate, 24.7 µM; in the test on RXF 393 renal, 17.7 µM; in the test on MOLT-4 leukemia, 23.5 µM.

As to `O=C(O)C1(Cc2ccc3c(c2)CCC3)Cc2ccccc2C1`, the TGI with SF-539 CNS, in the test on KM12 colon, in the test with SF-295 CNS, in the test with SK-MEL-28 melanoma, with OVCAR-8 ovarian and in the test with OVCAR-5 ovarian was > 100 µM throughout. The TGI in the test with MDA-MB-435, in the test on DU-145 prostate, in the test on RXF 393 renal and in the test with MOLT-4 leukemia was > 100 µM each time.

Consider `C(=N\OCCc1ccccc1)/c1cccnc1`, for which the TGI in the test with SF-539 CNS, with KM12 colon, in the test with SF-295 CNS, in the test on SK-MEL-28 melanoma, in the test on OVCAR-8 ovarian and in the test on OVCAR-5 ovarian was > 100 µM each time. Further, the TGI with MDA-MB-435, with DU-145 prostate, in the test with RXF 393 renal and with MOLT-4 leukemia was > 100 µM in each case.

As to `O=C(CC(=O)N1N=C(N(c2ccccc2)c2ccccc2)CC1c1ccccc1)Nc1ccc(Cl)cc1` (stereo not given), the TGI with SF-539 CNS, in the test with KM12 colon, in the test on SF-295 CNS, in the test on SK-MEL-28 melanoma, in the test with OVCAR-8 ovarian and with OVCAR-5 ovarian was > 100 µM each time. Moreover, the TGI in the test with MDA-MB-435, with DU-145 prostate, with RXF 393 renal and with MOLT-4 leukemia was > 100 µM each time.

`COc1cc(Nc2nnc3n2S(=O)(=O)c2cc(C)c(Cl)cc2S3)cc(OC)c1`: the TGI in the test on SF-539 CNS is 6.31 µM; in the test with KM12 colon, > 100 µM; in the test with SF-295 CNS, 68.7 µM; in the test with SK-MEL-28 melanoma it was > 100 µM; with OVCAR-8 ovarian, 81.1 µM; with OVCAR-5 ovarian, > 100 µM. Also, the TGI in the test with MDA-MB-435 was > 100 µM; with DU-145 prostate it was 44.2 µM; in the test on RXF 393 renal it was 49.3 µM; with MOLT-4 leukemia it was 60.9 µM.

In the case of `O=C(Cc1nc2ncccc2[nH]c1=O)c1c[nH]c2ccccc12`, the TGI in the test with SF-539 CNS came out at 31.5 µM; in the test with KM12 colon it was 34.5 µM; in the test with SF-295 CNS, 31.9 µM; with SK-MEL-28 melanoma it was 32.8 µM; with OVCAR-8 ovarian, 81.1 µM; with OVCAR-5 ovarian it was 59.2 µM. Moreover, the TGI turned out to be 30.7 µM with MDA-MB-435, 32.7 µM with DU-145 prostate, 39.1 µM in the test on RXF 393 renal and 94.8 µM with MOLT-4 leukemia.

`COc1cc([C@@]23OC[C@@H]4[C@@H](OC[C@@H]42)c2cc4c(cc23)OCO4)cc(OC)c1OC`: the TGI in the test with SF-539 CNS was > 47.1 µM; with KM12 colon, > 100 µM; in the test with SF-295 CNS, > 100 µM; with SK-MEL-28 melanoma, > 100 µM; in the test on OVCAR-8 ovarian, > 100 µM; in the test with OVCAR-5 ovarian it was > 100 µM. Also, the TGI in the test with MDA-MB-435, in the test with DU-145 prostate, with RXF 393 renal and in the test on MOLT-4 leukemia was > 100 µM in each case.

Regarding `CN(C)CC1CCCCCCCCCC(CN(C)C)C1=O` (stereo not given), the TGI is > 47 µM in the test with SF-539 CNS; > 39.4 µM in the test on KM12 colon; > 59.7 µM with SF-295 CNS; > 54.4 µM in the test on SK-MEL-28 melanoma; > 54.8 µM in the test with OVCAR-8 ovarian; > 63.6 µM in the test with OVCAR-5 ovarian. Besides, the TGI in the test on MDA-MB-435 is 19.7 µM; in the test with DU-145 prostate, 31.1 µM; in the test on RXF 393 renal, > 42.4 µM; in the test with MOLT-4 leukemia, > 25.7 µM.

Consider `COC(=O)C1=CN(C2CCCCC2)C2(c3ccccc3)c3ccccc3C(=O)OC(=O)C12` (stereo not given), for which the TGI with SF-539 CNS, in the test on KM12 colon, in the test on SF-295 CNS, in the test on SK-MEL-28 melanoma, in the test on OVCAR-8 ovarian and in the test with OVCAR-5 ovarian was > 100 µM each time. For the same compound, the TGI is > 100 µM in the test with MDA-MB-435, > 100 µM in the test with DU-145 prostate, 97.2 µM in the test on RXF 393 renal and > 100 µM in the test on MOLT-4 leukemia.

On to `NC(=O)/C=c1/c2ccccc2n2nc3ccccc3c12`, for which the TGI was 31.9 µM in the test with SF-539 CNS; 56.5 µM in the test on KM12 colon; > 100 µM in the test with SF-295 CNS; 33.9 µM in the test with SK-MEL-28 melanoma; 27.4 µM with OVCAR-8 ovarian; 77.8 µM in the test with OVCAR-5 ovarian. In addition, the TGI in the test on MDA-MB-435 was 35.1 µM; in the test with DU-145 prostate, > 100 µM; with RXF 393 renal, 46.5 µM; with MOLT-4 leukemia, 7.69 µM.

Regarding `Oc1cccc2cc(Br)cnc12`, the TGI with SF-539 CNS was 57.3 µM; with KM12 colon it was > 100 µM; in the test with SF-295 CNS, > 100 µM; with SK-MEL-28 melanoma, > 100 µM; in the test on OVCAR-8 ovarian it was > 100 µM; in the test with OVCAR-5 ovarian, > 100 µM. Further, the TGI in the test on MDA-MB-435 is > 100 µM; in the test on DU-145 prostate, > 100 µM; with RXF 393 renal, 88.2 µM; with MOLT-4 leukemia, 14.9 µM.

With `[O-][N+]1=NC(c2ccccc2)=C1c1ccccc1`, the TGI with SF-539 CNS, in the test with KM12 colon, with SF-295 CNS, with SK-MEL-28 melanoma, in the test on OVCAR-8 ovarian and with OVCAR-5 ovarian was > 50 µM throughout. The TGI with MDA-MB-435, in the test on DU-145 prostate, in the test on RXF 393 renal and with MOLT-4 leukemia was > 50 µM throughout.

As to `Fc1cccc(Cl)c1C1SCc2nc3cc4ccccc4cc3n21` (stereo not given), the TGI in the test with SF-539 CNS, with KM12 colon, in the test with SF-295 CNS, with SK-MEL-28 melanoma, with OVCAR-8 ovarian and in the test on OVCAR-5 ovarian was > 100 µM in each case. In addition, the TGI in the test on MDA-MB-435, in the test on DU-145 prostate, in the test with RXF 393 renal and in the test on MOLT-4 leukemia was > 100 µM throughout.

Regarding `COC1=CC(=O)c2c(c(COP(=O)(N(C)CCBr)N(C)CCBr)cn2C)C1=O`, the TGI was determined as 0.0678 µM in the test with SF-539 CNS; 1.07 µM with KM12 colon; 0.366 µM in the test on SF-295 CNS; 0.33 µM in the test on SK-MEL-28 melanoma; 0.314 µM in the test with OVCAR-8 ovarian; 0.564 µM in the test on OVCAR-5 ovarian. The TGI was 0.222 µM in the test on MDA-MB-435, 1.06 µM in the test with DU-145 prostate, 0.289 µM in the test with RXF 393 renal and > 100 µM in the test with MOLT-4 leukemia.

As for `COc1cc(S(=O)(=O)Nc2ccc(-c3csc(N4C(=O)C(Cl)C4c4ccccc4)n3)cc2)ccc1Cl` (stereo not given), the TGI with SF-539 CNS is > 100 µM; with KM12 colon, > 100 µM; with SF-295 CNS it was > 100 µM; with SK-MEL-28 melanoma it was > 100 µM; in the test with OVCAR-8 ovarian, 39.9 µM; in the test on OVCAR-5 ovarian, > 100 µM. Moreover, the TGI in the test with MDA-MB-435 was > 100 µM; in the test on DU-145 prostate, 38.7 µM; in the test with RXF 393 renal, 23.1 µM; in the test with MOLT-4 leukemia, > 100 µM.

Regarding `Nc1nc2ccc(OCC(O)CN3CCCCC3)cc2[n+]([O-])n1` (stereo not given), the TGI in the test on SF-539 CNS, in the test with KM12 colon, in the test with SF-295 CNS, in the test with SK-MEL-28 melanoma, in the test on OVCAR-8 ovarian and in the test with OVCAR-5 ovarian was > 100 µM throughout. In addition, the TGI in the test on MDA-MB-435, in the test with DU-145 prostate, in the test on RXF 393 renal and in the test with MOLT-4 leukemia was > 100 µM each time.
